Assays:
Rattus norvegicus = details: acute; oral; mortality
Bird = details: oral, mortality; for LD50: acute, unspecified; for LC50: short-term, feed

With CCC=CC=CCCCCCCOC(C)=O (stereo in doubt) [(7Z,9E)-Dodeca-7,9-dienyl acetate] as the molecule, how does the LD50 (Rattus norvegicus) read?
Its LD50 is > 5000 mg/kg.

How did the LD50 (Rattus norvegicus) turn out when CCCC/C=C\CCCCCCCCCC=O [(Z)-11-Hexadecenal] was run?
Its LD50 is > 5000 mg/kg.

And the LD50 (Bird)?
The LD50 was > 2250 mg/kg.

What about the LC50 (Bird) of the same molecule?
The LC50 was > 5620 mg/kg.

For CC/C=C\CCCCCCCCCCOC(C)=O [(Z)-Tetradec-11-enyl acetate], which LD50 (Rattus norvegicus) is on record?
Its LD50 is > 5000 mg/kg.

For CC/C=C\CCCCCCCCOC(C)=O [(Z)-Dodec-9-enyl acetate], which LD50 (Rattus norvegicus) is on record?
Its LD50 is > 5000 mg/kg.

For CCCC/C=C/CC/C=C\CCCCCCOC(C)=O [Hexadeca-7,11-dien-1-yl acetate (Z,E)-], which LD50 (Rattus norvegicus) is on record?
Its LD50 is > 5000 mg/kg.

What about the LD50 (Bird) of the same molecule?
Its LD50 is > 2250 mg/kg.

What about the LC50 (Bird) of the same molecule?
The LC50 was > 5620 mg/kg.

CCCC/C=C\CCCCCCCCOC(C)=O [(Z)-9-Tetradecenyl acetate] was tested. Which LD50 (Rattus norvegicus) did it give?
Its LD50 is > 5000 mg/kg.

What does the source list for C/C=C/C=C/CCCCCCCO [(8E,10E)-8,10-Dodecadien-1-ol]?
LD50 (Rattus norvegicus): > 5000 mg/kg; LD50 (Bird): > 2050 mg/kg

With CCC/C=C/CCCCCCCOC(C)=O [(E)-Dodec-8-enyl acetate] as the molecule, how does the LD50 (Rattus norvegicus) read?
The LD50 was > 5000 mg/kg.

Reference: EPA's ToxValDB 9.5 (doi:10.2903/j.efsa.2014.3524)
